“And” between values parts separate entries of the source, which are not always exact repeats. Equal values may be shown once.
System: HCV pseudoparticles
Assay: HCV pseudoparticle (HCVpp) entry assay in Huh7 hepatoma cells, luciferase readout
Type: cell-based, hepatitis C virus
Details: for % of control at ~30 uM: percentage of hepatitis C virus cellular entry at 30 μM peptide vs uninhibited control
Procedure: HCV pseudotype particle generation. Single cycle HCV pseudoparticles are composed of a replication-defective HIV genome and HCV envelope proteins. These pseudoparticles were made by transfecting 293T cells with 5 ug of each pNL43E-R-luc (Chen et al., J. Virol. 68(2):654-60 (1994)) and plasmid expressing HCV envelope proteins pCMV/E1-2 with profection transfection kit from Promega (Madison, Wis.). The medium was refreshed 12-24 hours after transfection and supernatant was collected 48 hours after transfection. The supernatant from a transfection of only pNL43E-R-luc was used each time as a control for non specific entry events.
Infection of hepatoma cell lines with HCV pseudotype particles and screen for inhibitory peptides. The hepatoma cells, Huh7, was seeded at 8000 cells in 90 ul medium in 96-well plate. In the case of the inhibitor screen, the inhibitor was incubated with cells for one hour at 37° C. and then 50 ul viral supernatant was added to the cells 24 hours after seeding. The viral stock was pre-tittered and diluted to yield approximately 10,000 to 20,000 RLU. The cells were incubated at 37° C. with 5% CO2 for additional 72 hours and were harvested for luciferase assay. Peptide stocks were prepared in 100% DMSO at 10 mg/ml and were first screened at 100 ug/ml and then a dose responsive curve was generated with 10 points 3-fold titration starting from 100 ug/ml.
The peptide of SEQ ID NO: 77 was first serial diluted by the factor of 3 in 100% DMSO from 100 ug/ml and then transferred to the assay plates at 100-fold dilution. The peptide was first incubated with cells and HCVpp (A) or HIVpp (B), respectively, for 30 minutes at […] in this experiment. Then, the medium containing the peptide was removed from the cells and virus with peptide was added to the cells. Cells were incubated for 72 hours and then were harvested for luciferase assay. Two separate trials were performed.
In addition, the peptide of SEQ ID NO: 77 was mutated at several positions and assayed in the HCV entry assay discussed above. […] The assays were performed essentially as described above.

[1] = 0.1 nM of peptide (printed for three rows), two values per peptide and row
[2] = 0.3 nM of peptide, two values per peptide
[3] = 1 nM of peptide, two values per peptide
[4] = 3 nM of peptide, two values per peptide
[5] = 10 nM of peptide, two values per peptide
[6] = 30 nM of peptide, two values per peptide
[7] = 100 nM of peptide, two values per peptide
[8] = 300 nM of peptide, two values per peptide
[9] = 10000 nM of peptide, two values per peptide
[10] = 30000 nM of peptide, two values per peptide

Substance	% control (HCVpp entry), alanine scanning [1]	% control (HCVpp entry), alanine scanning [2]	% control (HCVpp entry), alanine scanning [3]	% control (HCVpp entry), alanine scanning [4]	% control (HCVpp entry), alanine scanning [5]	% control (HCVpp entry), alanine scanning [6]	% control (HCVpp entry), alanine scanning [7]	% control (HCVpp entry), alanine scanning [8]	% of control at ~30 uM	% control (HCVpp entry), lysine scanning [1]	% control (HCVpp entry), lysine scanning [2]	% control (HCVpp entry), lysine scanning [3]	% control (HCVpp entry), lysine scanning [4]	% control (HCVpp entry), lysine scanning [5]	% control (HCVpp entry), lysine scanning [6]	% control (HCVpp entry), lysine scanning [7]	% control (HCVpp entry), lysine scanning [8]	% control (HCVpp entry), lysine scanning [9]	% control (HCVpp entry), lysine scanning [10]	also measured
A-I-K-W-E-P-V-L-L-L-F-L-L (AIKWEPVLLLFLL; HCV peptide) [SEQ ID NO: 120]	–	–	–	–	–	–	–	–	–	–	–	–	–	–	–	–	–	–	–	% control (HCVpp entry), proline scanning [1]: 82 % control and 78 % control and 102 % control and 80 % control and 101 % control and 117 % control; % control (HCVpp entry), proline scanning [2]: 90 % control and 75 % control; % control (HCVpp entry), proline scanning [3]: 91 % control and 75 % control; % control (HCVpp entry), proline scanning [4]: 66 % control and 76 % control; % control (HCVpp entry), proline scanning [5]: 73 % control and 76 % control; % control (HCVpp entry), proline scanning [6]: 72 % control and 40 % control; % control (HCVpp entry), proline scanning [7]: 39 % control; % control (HCVpp entry), proline scanning [8]: 33 % control and 39 % control; % control (HCVpp entry), proline scanning [9]: 24 % control; % control (HCVpp entry), proline scanning [10]: 38 % control and 42 % control
A-I-K-W-E-Y-A-L-L-L-F-L-L (AIKWEYALLLFLL; HCV peptide) [SEQ ID NO: 92, Ala-scan]	73 % control and 115 % control and 82 % control and 89 % control and 99 % control and 130 % control	85 % control and 61 % control	90 % control and 80 % control	68 % control and 99 % control	82 % control and 59 % control	42 % control and 64 % control	32 % control and 25 % control	21 % control and 30 % control	17%	–	–	–	–	–	–	–	–	–	–	–
A-I-K-W-E-Y-K-L-L-L-F-L-L (AIKWEYKLLLFLL; HCV peptide) [SEQ ID NO: 131]	–	–	–	–	–	–	–	–	–	97 % control and 80 % control and 94 % control and 96 % control and 113 % control	105 % control and 81 % control	85 % control and 68 % control	71 % control and 85 % control	74 % control and 66 % control	71 % control and 68 % control	49 % control and 62 % control	29 % control and 42 % control	16 % control and 14 % control	30 % control and 44 % control	–
A-I-K-W-E-Y-P-L-L-L-F-L-L (AIKWEYPLLLFLL; HCV peptide) [SEQ ID NO: 121]	–	–	–	–	–	–	–	–	–	–	–	–	–	–	–	–	–	–	–	% control (HCVpp entry), proline scanning [1]: 77 % control and 95 % control and 91 % control and 115 % control and 104 % control and 90 % control; % control (HCVpp entry), proline scanning [2]: 68 % control and 84 % control; % control (HCVpp entry), proline scanning [3]: 76 % control and 110 % control; % control (HCVpp entry), proline scanning [4]: 85 % control and 87 % control; % control (HCVpp entry), proline scanning [5]: 75 % control and 66 % control; % control (HCVpp entry), proline scanning [6]: 70 % control and 82 % control; % control (HCVpp entry), proline scanning [7]: 44 % control and 63 % control; % control (HCVpp entry), proline scanning [8]: 42 % control and 30 % control; % control (HCVpp entry), proline scanning [10]: 32 % control and 41 % control
A-I-K-W-E-Y-V-A-L-L-F-L-L (AIKWEYVALLFLL; HCV peptide) [SEQ ID NO: 93, Ala-scan]	91 % control and 83 % control and 80 % control and 104 % control and 134 % control and 81 % control	86 % control and 105 % control	85 % control and 87 % control	78 % control and 87 % control	71 % control and 67 % control	58 % control and 51 % control	47 % control and 42 % control	32 % control and 27 % control	13%	–	–	–	–	–	–	–	–	–	–	% control (HCVpp entry), alanine scanning [9]: 41 % control and 32 % control; % control (HCVpp entry), alanine scanning [10]: 32 % control
A-I-K-W-E-Y-V-K-L-L-F-L-L (AIKWEYVKLLFLL; HCV peptide) [SEQ ID NO: 132]	–	–	–	–	–	–	–	–	–	73 % control and 89 % control and 95 % control and 92 % control and 117 % control and 96 % control	100 % control and 71 % control	67 % control and 79 % control	78 % control and 75 % control	54 % control and 56 % control	71 % control and 89 % control	59 % control and 62 % control	46 % control and 44 % control	49 % control and 50 % control	42 % control and 41 % control	–
A-I-K-W-E-Y-V-L-A-L-F-L-L (AIKWEYVLALFLL; HCV peptide) [SEQ ID NO: 94, Ala-scan]	99 % control and 96 % control and 79 % control and 101 % control and 115 % control and 105 % control	104 % control and 92 % control	81 % control and 82 % control	58 % control and 89 % control	79 % control and 86 % control	58 % control and 48 % control	45 % control and 41 % control	42 % control and 33 % control	17%	–	–	–	–	–	–	–	–	–	–	% control (HCVpp entry), alanine scanning [9]: 36 % control and 34 % control; % control (HCVpp entry), alanine scanning [10]: 14 % control and 28 % control
A-I-K-W-E-Y-V-L-K-L-F-L-L (AIKWEYVLKLFLL; HCV peptide) [SEQ ID NO: 133]	–	–	–	–	–	–	–	–	–	78 % control and 85 % control and 96 % control and 101 % control and 87 % control and 116 % control	108 % control and 78 % control	96 % control and 82 % control	95 % control and 79 % control	77 % control and 113 % control	80 % control and 68 % control	75 % control and 60 % control	41 % control and 56 % control	24 % control and 39 % control	–	–
A-I-K-W-E-Y-V-L-L-K-F-L-L (AIKWEYVLLKFLL; HCV peptide) [SEQ ID NO: 134]	–	–	–	–	–	–	–	–	–	80 % control and 96 % control and 108 % control and 75 % control and 138 % control and 79 % control	104 % control and 85 % control	128 % control and 81 % control	94 % control and 92 % control	105 % control and 77 % control	101 % control and 76 % control	89 % control and 87 % control	75 % control and 68 % control	60 % control and 47 % control	56 % control and 45 % control	–

Source: patent US20100119483A1, “PEPTIDE VIRAL ENTRY INHIBITORS” (Schering Corporation, priority 2004, published 2010)
